Where a name gives a salt, the structure may show the parent alone.
Experiments:
PDE4 = PDE4 (Homo sapiens, UniProt Q08499); test: In-vitro assay for PDE4 enzymes, real-time enzyme-coupled spectrophotometric assay (Table 9); format: biochemical; conditions: human PDE4D; activity class, Table 9; read-out: hPDE4D
PDE4B = PDE4B (Homo sapiens, UniProt Q07343); test: In-vitro assay for PDE4 enzymes, real-time enzyme-coupled spectrophotometric assay, PDE4B Activity (Table 10); format: biochemical; conditions: human PDE4B (hPDE4B), enzyme-coupled spectrophotometric assay; read-out: PDE4B Activity, hPDE4B
Chain of PDE4B (Q07343 whole entry): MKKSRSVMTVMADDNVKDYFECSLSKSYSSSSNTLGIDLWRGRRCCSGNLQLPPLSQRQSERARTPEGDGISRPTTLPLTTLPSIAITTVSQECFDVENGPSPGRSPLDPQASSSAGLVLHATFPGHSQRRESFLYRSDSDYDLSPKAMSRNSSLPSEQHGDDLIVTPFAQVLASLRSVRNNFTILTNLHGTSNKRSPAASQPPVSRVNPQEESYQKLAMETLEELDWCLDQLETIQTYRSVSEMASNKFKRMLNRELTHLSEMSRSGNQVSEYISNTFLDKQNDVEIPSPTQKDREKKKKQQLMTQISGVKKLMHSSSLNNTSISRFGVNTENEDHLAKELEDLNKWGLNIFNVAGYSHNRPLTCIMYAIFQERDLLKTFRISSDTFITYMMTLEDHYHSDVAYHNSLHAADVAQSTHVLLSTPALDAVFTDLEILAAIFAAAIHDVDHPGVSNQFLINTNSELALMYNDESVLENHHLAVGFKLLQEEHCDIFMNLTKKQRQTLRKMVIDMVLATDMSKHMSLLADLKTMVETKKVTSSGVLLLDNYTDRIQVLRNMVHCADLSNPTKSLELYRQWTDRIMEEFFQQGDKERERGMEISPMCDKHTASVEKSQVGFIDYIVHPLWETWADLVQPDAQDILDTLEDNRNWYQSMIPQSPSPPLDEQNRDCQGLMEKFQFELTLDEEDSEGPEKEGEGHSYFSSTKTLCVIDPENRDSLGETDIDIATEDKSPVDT

Chain of PDE4 (Q08499 whole entry): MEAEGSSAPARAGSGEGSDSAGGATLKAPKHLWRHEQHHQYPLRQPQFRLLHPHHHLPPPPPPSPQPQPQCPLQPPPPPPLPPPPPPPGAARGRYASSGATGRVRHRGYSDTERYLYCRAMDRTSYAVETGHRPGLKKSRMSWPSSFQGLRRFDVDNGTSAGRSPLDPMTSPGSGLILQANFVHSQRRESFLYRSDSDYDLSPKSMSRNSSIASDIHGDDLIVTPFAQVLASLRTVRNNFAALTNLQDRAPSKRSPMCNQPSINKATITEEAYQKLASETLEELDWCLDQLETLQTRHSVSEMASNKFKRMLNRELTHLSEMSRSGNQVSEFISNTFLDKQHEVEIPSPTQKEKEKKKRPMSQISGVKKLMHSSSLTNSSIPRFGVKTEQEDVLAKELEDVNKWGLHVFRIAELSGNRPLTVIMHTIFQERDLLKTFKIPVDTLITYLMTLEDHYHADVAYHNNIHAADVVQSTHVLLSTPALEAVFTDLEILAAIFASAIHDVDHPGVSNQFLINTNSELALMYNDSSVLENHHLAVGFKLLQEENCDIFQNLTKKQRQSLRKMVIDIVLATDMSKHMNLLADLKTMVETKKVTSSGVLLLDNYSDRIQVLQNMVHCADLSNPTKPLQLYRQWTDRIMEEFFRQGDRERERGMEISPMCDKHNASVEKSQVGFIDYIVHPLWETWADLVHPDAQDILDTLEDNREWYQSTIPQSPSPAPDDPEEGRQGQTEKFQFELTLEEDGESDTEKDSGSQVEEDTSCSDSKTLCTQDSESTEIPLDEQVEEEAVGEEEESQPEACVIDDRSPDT

COc1ccc(Cc2nnc(N)s2)c(F)c1-c1cccc(Cl)c1 [P-333, 5-(3′-Chloro-2-fluoro-6-methoxy-biphenyl-3-ylmethyl)-[1,3,4]thiadiazol-2-ylamine]
IC50 (PDE4): < 5 µM | IC50 (PDE4B): < 5 µM

COc1ccc(Cn2cncn2)cc1-c1cccc(SC)c1 [P-085, 1-(6-Methoxy-3′-methylsulfanyl-biphenyl-3-ylmethyl)-1H-[1,2,4]triazole]
IC50 (PDE4): < 5 µM | IC50 (PDE4B): < 5 µM

COc1ccc(Cc2cccc(CO)c2)cc1-c1cccc([N+](=O)[O-])c1 [P-103, [3-(6-Methoxy-3′-nitro-biphenyl-3-ylmethyl)-phenyl]-methanol]
IC50 (PDE4): < 5 µM | IC50 (PDE4B): < 5 µM

COc1ccc(CCn2ccccc2=O)cc1-c1cccc([N+](=O)[O-])c1 [P-244, 1-[2-(6-Methoxy-3′-nitro-biphenyl-3-yl)-ethyl]-1H-pyridin-2-one]
IC50 (PDE4): < 5 µM | IC50 (PDE4B): < 5 µM

COc1ccc(Cc2ccc3c(c2)OCO3)c(F)c1-c1cccc(Cl)c1 [P-242]
IC50 (PDE4): < 5 µM | IC50 (PDE4B): < 5 µM

COc1ccc(Cc2cccc(C(N)=O)c2)cc1-c1cccc(Cl)c1 [P-282, 3-(3′-Chloro-6-methoxy-biphenyl-3-ylmethyl)-benzamide]
IC50 (PDE4): < 5 µM | IC50 (PDE4B): 5 to 20 µM

CNc1ccc(Cc2ccc(OC)c(-c3cccc(Cl)c3)c2F)cc1 [P-311, [4-(3′-Chloro-2-fluoro-6-methoxy-biphenyl-3-ylmethyl)-phenyl]-methyl-amine]
IC50 (PDE4): < 5 µM | IC50 (PDE4B): < 5 µM

COc1ccc(Cn2cncn2)cc1-c1ccc2c(c1)OCO2 [P-044, 1-(3-Benzo[1,3]dioxol-5-yl-4-methoxy-benzyl)-1H-[1,2,4]triazole]
IC50 (PDE4): < 5 µM | IC50 (PDE4B): < 5 µM

O=[N+]([O-])c1cccc(-c2cc(Cc3ccc(Cl)nc3)ccc2O)c1 [P-500]
IC50 (PDE4): < 5 µM | IC50 (PDE4B): 5 to 20 µM

CCNC(=O)N1CCN(c2cc(Cc3ccc(OC)c(-c4cccc(Cl)c4)c3F)ccn2)CC1 [P-519, 4-[4-(3′-Chloro-2-fluoro-6-methoxy-biphenyl-3-ylmethyl)-pyridin-2-yl]-piperazine-1-carboxylic acid ethylamide]
IC50 (PDE4): < 5 µM | IC50 (PDE4B): < 5 µM

CNC(=O)NCc1ccc(Cc2ccc(OC)c(-c3cccc(Cl)c3)c2F)cn1 [P-460, 1-[5-(3′-Chloro-2-fluoro-6-methoxy-biphenyl-3-ylmethyl)-pyridin-2-ylmethyl]-3-methyl-urea hydrochloride]
IC50 (PDE4): < 5 µM | IC50 (PDE4B): < 5 µM

COc1ccc(Cc2ccc(NC(=O)NC3CCCO3)cc2)cc1-c1cccc(Cl)c1 (stereo not shown) [P-566, 1-[4-(3′-Chloro-6-methoxy-biphenyl-3-ylmethyl)-phenyl]-3-(tetrahydro-furan-2-yl)-urea]
IC50 (PDE4): < 5 µM | IC50 (PDE4B): < 5 µM

COc1ccc(Cc2ccc(CNS(C)(=O)=O)c(O)c2)c(F)c1-c1cccc(Cl)c1 [P-299]
IC50 (PDE4): < 5 µM | IC50 (PDE4B): 5 to 20 µM

NC(=O)Nc1ccc(Cc2ccc(OC(F)F)c(-c3cccc([N+](=O)[O-])c3)c2F)cc1 [P-316]
IC50 (PDE4): < 5 µM | IC50 (PDE4B): < 5 µM

COc1ccc(Cc2c(C)nn(CCO)c2C)cc1-c1cccc([N+](=O)[O-])c1 [P-088, 2-[4-(6-Methoxy-3′-nitro-biphenyl-3-ylmethyl)-3,5-dimethyl-pyrazol-1-yl]-ethanol]
IC50 (PDE4): < 5 µM | IC50 (PDE4B): < 5 µM

COc1ccc(Cc2ccc(CNC(=O)N(C)C)nc2)c(F)c1-c1cccc(Cl)c1 [P-371, 3-[5-(3′-Chloro-2-fluoro-6-methoxy-biphenyl-3-ylmethyl)-pyridin-2-ylmethyl]-1,1-dimethyl-urea hydrochloride]
IC50 (PDE4): < 5 µM | IC50 (PDE4B): < 5 µM

COc1ccc(Cc2ccc(F)c(CO)c2)cc1-c1cccc([N+](=O)[O-])c1 [P-135]
IC50 (PDE4): < 5 µM | IC50 (PDE4B): < 5 µM

COc1ccc(C(O)c2ccnn2C)cc1-c1ccc2c(c1)OCO2 (stereo not shown) [P-073, (3-Benzo[1,3]dioxol-5-yl-4-methoxy-phenyl)-(2-methyl-2H-pyrazol-3-yl)-methanol]
IC50 (PDE4): < 5 µM | IC50 (PDE4B): 21 to 40 µM

COc1ccc(Cc2ccc(N)cc2)c(F)c1-c1cccc(Br)c1 [P-453]
IC50 (PDE4): < 5 µM | IC50 (PDE4B): < 5 µM

COc1ccc(Cc2ccc(N)nc2)c(F)c1-c1cccc(Cl)c1 [P-252, 5-(3′-Chloro-2-fluoro-6-methoxy-biphenyl-3-ylmethyl)-pyridin-2-ylamine]
IC50 (PDE4): < 5 µM | IC50 (PDE4B): < 5 µM

COc1ccc(Cc2ccc(F)cc2)cc1-c1cccc(C(C)=O)c1 [P-140, 1-[5′-(4-Fluoro-benzyl)-2′-methoxy-biphenyl-3-yl]-ethanone]
IC50 (PDE4): < 5 µM | IC50 (PDE4B): < 5 µM

COc1ccc(Cc2ccc(CNC(C)=O)c(O)c2)c(F)c1-c1cccc(Cl)c1 [P-302]
IC50 (PDE4): < 5 µM | IC50 (PDE4B): < 5 µM

COc1ccc(Cn2c(N)cccc2=O)cc1-c1cccc([N+](=O)[O-])c1 [P-236, 6-Amino-1-(6-methoxy-3′-nitro-biphenyl-3-ylmethyl)-1H-pyridin-2-one]
IC50 (PDE4): 20 to 40 µM | IC50 (PDE4B): 21 to 40 µM

COc1ccc(Cc2ccc(Nc3nccn3C)cc2)cc1-c1cccc(Cl)c1 [P-467, [4-(3′-Chloro-6-methoxy-biphenyl-3-ylmethyl)-phenyl]-(1-methyl-1H-imidazol-2-yl)-amine]
IC50 (PDE4): < 5 µM | IC50 (PDE4B): < 5 µM

COc1ccc(Cc2ccc(C#N)cc2)c(O)c1-c1cccc([N+](=O)[O-])c1 [P-138, 4-(2-Hydroxy-6-methoxy-3′-nitro-biphenyl-3-ylmethyl)-benzonitrile]
IC50 (PDE4): < 5 µM | IC50 (PDE4B): < 5 µM

COc1ccc(CN2C(=O)CCC2=O)cc1-c1ccc2c(c1)OCO2 [P-053, 1-(3-Benzo[1,3]dioxol-5-yl-4-methoxy-benzyl)-pyrrolidine-2,5-dione]
IC50 (PDE4): 5 to 20 µM | IC50 (PDE4B): 21 to 40 µM

COc1ccc(Cn2cncn2)cc1-c1cccc(C#N)c1 [P-081, 2′-Methoxy-5′-[1,2,4]triazol-1-ylmethyl-biphenyl-3-carbonitrile]
IC50 (PDE4): < 5 µM | IC50 (PDE4B): 5 to 20 µM

COc1ccc(Cc2ccc(N3CCC3)nc2)cc1-c1cccc(Cl)c1 [P-568, 2-azetidin-1-yl-5-(3′-chloro-6-methoxy-biphenyl-3-ylmethyl)-pyridine]
IC50 (PDE4): < 5 µM | IC50 (PDE4B): < 5 µM

COc1ccc(CN2CCC[C@H]2CO)cc1-c1cccc([N+](=O)[O-])c1 [P-072, [(S)-1-(6-Methoxy-3′-nitro-biphenyl-3-ylmethyl)-pyrrolidin-2-yl]-methanol]
IC50 (PDE4): 5 to 20 µM | IC50 (PDE4B): 21 to 40 µM

COc1ccc(Cc2ccc(NC(=O)CCC(=O)O)cc2)cc1-c1cccc([N+](=O)[O-])c1 [P-122]
IC50 (PDE4): < 5 µM | IC50 (PDE4B): 5 to 20 µM

COc1ccc(Cc2ccc(F)cc2)cc1-c1cccc(-c2nnco2)c1 [P-118, 2-[5′-(4-Fluoro-benzyl)-2′-methoxy-biphenyl-3-yl]-[1,3,4]oxadiazole]
IC50 (PDE4): < 5 µM | IC50 (PDE4B): < 5 µM

O=[N+]([O-])c1cccc(-c2cc(Cc3ccc(F)cc3)ccc2OC(F)F)c1 [P-067, 2-Difluoromethoxy-5-(4-fluoro-benzyl)-3′-nitro-biphenyl]
IC50 (PDE4): < 5 µM | IC50 (PDE4B): < 5 µM

COc1ccc(CN2C(=O)CC[C@H]2CN)cc1-c1cccc([N+](=O)[O-])c1 [P-155, (S)-5-Aminomethyl-1-(6-methoxy-3′-nitro-biphenyl-3-ylmethyl)-pyrrolidin-2-one]
IC50 (PDE4): 20 to 40 µM | IC50 (PDE4B): 5 to 20 µM

CCNC(=O)Nc1ncc(Cc2ccc(OC)c(-c3cccc(C(C)=O)c3)c2F)cn1 [P-315, 1-[5-(3′-Acetyl-2-fluoro-6-methoxy-biphenyl-3-ylmethyl)-pyrimidin-2-yl]-3-ethyl-urea]
IC50 (PDE4): < 5 µM | IC50 (PDE4B): < 5 µM

COc1ccc(Cc2ccc(OC[C@H]3CCCN3)nc2)c(F)c1-c1cccc(Cl)c1 [P-523, 5-(3′-Chloro-2-fluoro-6-methoxy-biphenyl-3-ylmethyl)-2-((R)-1-pyrrolidin-2-ylmethoxy)-pyridine]
IC50 (PDE4): < 5 µM | IC50 (PDE4B): < 5 µM

COc1ccc(COC2CCCC2)nc1-c1cccc([N+](=O)[O-])c1 [P-038, 6-cyclopentyloxymethyl-3-methoxy-2-(3-nitro-phenyl)-pyridine]
IC50 (PDE4): 5 to 20 µM | IC50 (PDE4B): 21 to 40 µM

COc1ccc(Cc2csc(N)n2)c(F)c1-c1cccc(Cl)c1 [P-341, 4-(3′-Chloro-2-fluoro-6-methoxy-biphenyl-3-ylmethyl)-thiazol-2-ylamine]
IC50 (PDE4): < 5 µM | IC50 (PDE4B): < 5 µM

COc1ccc(Cc2ccc(OCCN3CCCCC3)cc2)cc1-c1cccc([N+](=O)[O-])c1 [P-166]
IC50 (PDE4): < 5 µM | IC50 (PDE4B): < 5 µM

COc1ccc(CN2CCCC2=O)c(O)c1-c1cccc([N+](=O)[O-])c1 [P-229]
IC50 (PDE4): < 5 µM | IC50 (PDE4B): < 5 µM

CCNc1ccc(Cc2ccc(OC)c(-c3cccc(Cl)c3)c2F)cn1 [P-318]
IC50 (PDE4): < 5 µM | IC50 (PDE4B): < 5 µM

COc1ccc(Cc2ccc(F)nc2)c(F)c1-c1cccc(Cl)c1 [P-456, 5-(3′Chloro-2-fluoro-6-methoxy-biphenyl-3-ylmethyl)-2-fluoro-pyridine]
IC50 (PDE4): < 5 µM | IC50 (PDE4B): < 5 µM

COc1ccc(Cc2ccc(C(N)=O)nc2)c(F)c1-c1cccc(C#N)c1 [P-415, 5-(3′-Cyano-2-fluoro-6-methoxy-biphenyl-3-ylmethyl)-pyridine-2-carboxylic acid amide]
IC50 (PDE4): < 5 µM | IC50 (PDE4B): < 5 µM

CNC(=O)NCc1ccc(Cc2ccc(OC)c(-c3cccc(Cl)c3)c2)cn1 [P-593, 1-[5-(3′-chloro-6-methoxy-biphenyl-3-ylmethyl)-pyridin-2-ylmethyl]-3-methyl-urea hydrochloride]
IC50 (PDE4): < 5 µM | IC50 (PDE4B): < 5 µM

COc1ccc(Cc2ccc(-n3cncn3)nc2)c(F)c1-c1cccc(Cl)c1 [P-412]
IC50 (PDE4): < 5 µM | IC50 (PDE4B): < 5 µM

COc1ccc(Cc2ccc(NC(N)=O)c(O)c2)c(F)c1-c1cccc(Cl)c1 [P-262]
IC50 (PDE4): < 5 µM | IC50 (PDE4B): < 5 µM

COc1ccc(CN2CCCCC2=O)cc1-c1cccc([N+](=O)[O-])c1 [P-188, 1-(6-Methoxy-3′-nitro-biphenyl-3-ylmethyl)-piperidin-2-one]
IC50 (PDE4): < 5 µM | IC50 (PDE4B): < 5 µM

COc1ccc(Cc2ccc(NC(N)=O)cc2)c(F)c1-c1cccc(Br)c1 [P-347]
IC50 (PDE4): < 5 µM | IC50 (PDE4B): < 5 µM

— patent US8791267B2, “Biaryl PDE4 inhibitors for treating inflammatory, cardiovascular and CNS disorders” (Decode Genetics EHF, priority 2007, dated 2014)
